Measurements: ChEMBL document CHEMBL2074509, “Uptake and efflux of the peptidic delta-opioid receptor agonist” (Neurosci Lett, 2001)

Molecular target: ATP-dependent translocase ABCB1 (Mus musculus, UniProt P21447)
Assay: TP_TRANSPORTER: in situ brain perfusion in mdr1a(-/-) mouse
Type: functional, organism-based
Settings: in vivo

Chain of ATP-dependent translocase ABCB1 (P21447 whole entry, the tested form may be a part): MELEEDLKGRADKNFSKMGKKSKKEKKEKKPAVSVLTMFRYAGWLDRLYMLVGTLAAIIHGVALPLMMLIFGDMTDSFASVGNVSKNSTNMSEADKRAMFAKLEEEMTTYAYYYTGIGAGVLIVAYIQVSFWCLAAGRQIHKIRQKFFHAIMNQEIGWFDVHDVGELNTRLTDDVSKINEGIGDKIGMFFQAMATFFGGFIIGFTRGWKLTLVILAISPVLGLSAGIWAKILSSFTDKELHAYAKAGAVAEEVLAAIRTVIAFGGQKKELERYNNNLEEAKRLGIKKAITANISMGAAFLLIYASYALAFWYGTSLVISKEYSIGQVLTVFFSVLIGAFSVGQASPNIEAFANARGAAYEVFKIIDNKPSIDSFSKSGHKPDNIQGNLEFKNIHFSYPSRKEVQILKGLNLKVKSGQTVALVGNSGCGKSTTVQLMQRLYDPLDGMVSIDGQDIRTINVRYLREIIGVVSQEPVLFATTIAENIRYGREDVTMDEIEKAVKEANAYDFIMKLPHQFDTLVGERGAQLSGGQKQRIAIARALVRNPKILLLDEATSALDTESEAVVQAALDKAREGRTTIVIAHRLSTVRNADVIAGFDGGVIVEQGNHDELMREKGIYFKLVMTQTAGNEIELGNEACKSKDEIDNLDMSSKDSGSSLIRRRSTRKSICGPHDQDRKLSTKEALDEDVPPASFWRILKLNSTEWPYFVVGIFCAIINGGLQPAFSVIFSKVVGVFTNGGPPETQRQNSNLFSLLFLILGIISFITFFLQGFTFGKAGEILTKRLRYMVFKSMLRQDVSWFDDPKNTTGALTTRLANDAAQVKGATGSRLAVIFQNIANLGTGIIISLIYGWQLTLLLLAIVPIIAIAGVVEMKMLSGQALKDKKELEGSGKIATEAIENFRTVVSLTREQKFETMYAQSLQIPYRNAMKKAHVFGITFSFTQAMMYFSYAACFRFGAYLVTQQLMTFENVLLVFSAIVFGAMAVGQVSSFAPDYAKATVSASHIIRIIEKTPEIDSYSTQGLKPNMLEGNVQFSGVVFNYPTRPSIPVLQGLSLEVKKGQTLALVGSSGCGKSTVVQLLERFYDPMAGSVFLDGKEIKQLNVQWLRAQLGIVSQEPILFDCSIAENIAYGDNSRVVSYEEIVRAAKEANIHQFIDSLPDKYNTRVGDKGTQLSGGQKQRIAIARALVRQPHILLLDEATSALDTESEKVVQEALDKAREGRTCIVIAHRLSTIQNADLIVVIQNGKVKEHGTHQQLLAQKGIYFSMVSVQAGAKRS

Question: How did the Activity turn out when `CC1(C)SSC(C)(C)[C@@H](NC(=O)[C@@H](N)Cc2ccc(O)cc2)C(=O)NCC(=O)N[C@@H](Cc2ccccc2)C(=O)N[C@H]1C(=O)O` was run?
Answer: substrate [+]
